According to ChEMBL document CHEMBL1201862, “PubChem BioAssay data set” (2004):
The source made the active and inactive calls.

Columns and labels:
[1] = molecular target: Eukaryotic translation initiation factor 4H (Homo sapiens, UniProt Q15056); experiment: eIF4H binding inhibition – biochemical, uHTS, fluorescence polarization, translation initiation inhibitor project, primary screen (AID 2012)
[2] = molecular target: Polyadenylate-binding protein 1 (Homo sapiens, UniProt P11940); experiment: blockers of PABP interaction with poly(A) – biochemical, fluorescence polarization, […] (AID 2014)
Sequence of Polyadenylate-binding protein 1 (P11940 whole entry): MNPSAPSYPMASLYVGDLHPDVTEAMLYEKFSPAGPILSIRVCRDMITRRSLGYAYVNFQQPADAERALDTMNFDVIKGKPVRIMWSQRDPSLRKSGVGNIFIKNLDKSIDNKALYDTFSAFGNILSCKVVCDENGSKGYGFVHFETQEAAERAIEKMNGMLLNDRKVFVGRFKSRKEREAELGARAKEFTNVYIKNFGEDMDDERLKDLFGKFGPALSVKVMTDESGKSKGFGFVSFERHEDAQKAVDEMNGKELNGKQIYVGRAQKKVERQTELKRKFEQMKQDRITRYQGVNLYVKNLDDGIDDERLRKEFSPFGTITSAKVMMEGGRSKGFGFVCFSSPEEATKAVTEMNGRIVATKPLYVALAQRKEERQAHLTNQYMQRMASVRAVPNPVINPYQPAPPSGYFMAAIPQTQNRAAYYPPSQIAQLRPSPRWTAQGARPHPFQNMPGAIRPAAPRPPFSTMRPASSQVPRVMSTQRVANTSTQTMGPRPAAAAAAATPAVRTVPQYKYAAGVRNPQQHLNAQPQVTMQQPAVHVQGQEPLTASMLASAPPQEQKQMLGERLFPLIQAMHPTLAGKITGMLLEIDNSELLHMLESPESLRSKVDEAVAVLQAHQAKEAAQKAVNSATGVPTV

[3] = molecular target: DNA dC->dU-editing enzyme APOBEC-3A (Homo sapiens, UniProt P31941); experiment: Dose Response confirmation of small molecule APOBEC3A DNA Deaminase Inhibitors via a fluorescence-based single-stranded DNA deaminase assay. [Related pubchem assays (depositor defined):AID493011, AID493024]; assay type: functional
Sequence of DNA dC->dU-editing enzyme APOBEC-3A (P31941 whole entry): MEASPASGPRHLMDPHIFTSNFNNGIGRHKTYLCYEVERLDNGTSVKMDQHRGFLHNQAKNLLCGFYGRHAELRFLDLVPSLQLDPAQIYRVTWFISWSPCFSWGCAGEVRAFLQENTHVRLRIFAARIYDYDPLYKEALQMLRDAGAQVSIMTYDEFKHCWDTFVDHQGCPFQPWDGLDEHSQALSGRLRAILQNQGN

[4] = molecular target: DNA dC->dU-editing enzyme APOBEC-3G (Homo sapiens, UniProt Q9HC16); assay type: functional;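 further: Dose-response counterscreen measuring inhibition of APOBEC3G DNA deaminase activity, run while confirming APOBEC3A inhibitors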
Sequence of DNA dC->dU-editing enzyme APOBEC-3G (Q9HC16 whole entry): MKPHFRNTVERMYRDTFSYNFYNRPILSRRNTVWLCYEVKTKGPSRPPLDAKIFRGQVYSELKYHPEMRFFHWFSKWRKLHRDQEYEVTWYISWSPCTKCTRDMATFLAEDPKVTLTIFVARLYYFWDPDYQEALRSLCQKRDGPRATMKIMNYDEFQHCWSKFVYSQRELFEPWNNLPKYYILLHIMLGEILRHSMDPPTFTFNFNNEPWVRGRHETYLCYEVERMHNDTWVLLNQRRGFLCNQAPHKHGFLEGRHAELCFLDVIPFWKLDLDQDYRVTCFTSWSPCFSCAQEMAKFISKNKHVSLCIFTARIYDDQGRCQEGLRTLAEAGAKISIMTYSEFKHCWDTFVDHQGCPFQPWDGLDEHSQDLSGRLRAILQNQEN

[5] = molecular target: T1, Aminopeptidase N (Plasmodium falciparum FcB1/Columbia, UniProt O96935); experiment: malaria alanyl aminopeptidase activity blockers – biochemical, fluorogenic H-Leu-NHMec substrate, 1536-well (AID 1445); design: species or system Plasmodium falciparum 3D7, 3D7
T1 sequence (O96935 whole entry): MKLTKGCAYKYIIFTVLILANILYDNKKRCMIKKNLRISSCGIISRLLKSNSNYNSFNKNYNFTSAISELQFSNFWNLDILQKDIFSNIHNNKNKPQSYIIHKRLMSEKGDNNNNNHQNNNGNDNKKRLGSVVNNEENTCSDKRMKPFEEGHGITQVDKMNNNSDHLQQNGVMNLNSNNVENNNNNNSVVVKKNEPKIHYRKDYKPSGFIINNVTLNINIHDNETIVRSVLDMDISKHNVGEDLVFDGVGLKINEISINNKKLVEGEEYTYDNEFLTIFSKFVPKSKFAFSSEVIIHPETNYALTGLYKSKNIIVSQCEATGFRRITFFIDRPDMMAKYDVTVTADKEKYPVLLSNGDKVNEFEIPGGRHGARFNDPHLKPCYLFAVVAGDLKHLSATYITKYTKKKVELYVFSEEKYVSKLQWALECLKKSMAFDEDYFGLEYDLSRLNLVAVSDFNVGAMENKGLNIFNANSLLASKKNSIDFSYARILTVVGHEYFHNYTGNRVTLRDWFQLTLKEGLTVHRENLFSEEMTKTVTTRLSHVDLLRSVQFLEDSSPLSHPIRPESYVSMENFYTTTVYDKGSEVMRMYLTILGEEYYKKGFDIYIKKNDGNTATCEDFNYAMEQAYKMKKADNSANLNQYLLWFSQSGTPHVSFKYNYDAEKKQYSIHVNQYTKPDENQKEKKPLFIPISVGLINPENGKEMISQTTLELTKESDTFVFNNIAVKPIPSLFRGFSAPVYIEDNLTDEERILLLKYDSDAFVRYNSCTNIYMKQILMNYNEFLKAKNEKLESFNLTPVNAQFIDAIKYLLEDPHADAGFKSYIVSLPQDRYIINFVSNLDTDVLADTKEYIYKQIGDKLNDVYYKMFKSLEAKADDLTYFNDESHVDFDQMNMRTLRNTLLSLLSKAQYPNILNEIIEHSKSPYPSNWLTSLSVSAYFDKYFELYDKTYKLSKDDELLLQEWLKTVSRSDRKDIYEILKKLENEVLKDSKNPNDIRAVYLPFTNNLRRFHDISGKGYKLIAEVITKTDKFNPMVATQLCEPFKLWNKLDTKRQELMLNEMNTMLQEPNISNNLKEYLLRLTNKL

[6] = microbe, parasite or virus in culture; assay type: functional; conditions: Mycobacterium tuberculosis
[7] = test system: Vero; experiment: cells; assay type: functional; conditions: Chlorocebus sabaeus
[8] = molecular target: T2, Protein RecA (Mycobacterium tuberculosis, UniProt P9WHJ3); experiment: Fluorescence Cell-Free Homogeneous Dose Retest to Identify Inhibitors of RecA-Intein Splicing Activity. [Related pubchem assays (depositor defined):AID2097, AID2223, AID489010, AID492950]; assay type: functional
T2 sequence (P9WHJ3 whole entry): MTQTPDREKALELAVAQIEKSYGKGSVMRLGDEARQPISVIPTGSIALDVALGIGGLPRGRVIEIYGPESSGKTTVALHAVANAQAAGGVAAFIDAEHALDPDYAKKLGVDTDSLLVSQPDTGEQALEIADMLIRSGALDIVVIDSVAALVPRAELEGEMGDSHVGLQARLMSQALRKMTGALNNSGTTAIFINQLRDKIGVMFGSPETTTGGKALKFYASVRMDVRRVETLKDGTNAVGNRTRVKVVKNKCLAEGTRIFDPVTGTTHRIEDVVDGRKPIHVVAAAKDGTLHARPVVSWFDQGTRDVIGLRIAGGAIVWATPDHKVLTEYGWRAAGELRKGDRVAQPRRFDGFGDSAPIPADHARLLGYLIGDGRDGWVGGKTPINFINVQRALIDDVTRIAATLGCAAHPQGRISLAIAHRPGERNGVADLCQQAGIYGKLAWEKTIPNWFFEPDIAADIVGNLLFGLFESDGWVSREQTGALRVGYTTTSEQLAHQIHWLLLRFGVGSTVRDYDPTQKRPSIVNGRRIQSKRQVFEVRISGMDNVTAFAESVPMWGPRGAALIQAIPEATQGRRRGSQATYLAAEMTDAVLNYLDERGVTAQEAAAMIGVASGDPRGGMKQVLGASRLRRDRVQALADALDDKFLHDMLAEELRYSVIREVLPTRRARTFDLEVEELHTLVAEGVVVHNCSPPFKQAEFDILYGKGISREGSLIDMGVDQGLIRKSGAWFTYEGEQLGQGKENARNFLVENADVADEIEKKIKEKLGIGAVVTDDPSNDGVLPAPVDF

[9] = molecular target: Large T antigen (Simian virus 40, UniProt P03070); assay type: functional, Betapolyomavirus macacae;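 further: Confirmatory-stage PubChem screen for compounds that inhibit SV40 T antigen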
Sequence of Large T antigen (P03070 whole entry): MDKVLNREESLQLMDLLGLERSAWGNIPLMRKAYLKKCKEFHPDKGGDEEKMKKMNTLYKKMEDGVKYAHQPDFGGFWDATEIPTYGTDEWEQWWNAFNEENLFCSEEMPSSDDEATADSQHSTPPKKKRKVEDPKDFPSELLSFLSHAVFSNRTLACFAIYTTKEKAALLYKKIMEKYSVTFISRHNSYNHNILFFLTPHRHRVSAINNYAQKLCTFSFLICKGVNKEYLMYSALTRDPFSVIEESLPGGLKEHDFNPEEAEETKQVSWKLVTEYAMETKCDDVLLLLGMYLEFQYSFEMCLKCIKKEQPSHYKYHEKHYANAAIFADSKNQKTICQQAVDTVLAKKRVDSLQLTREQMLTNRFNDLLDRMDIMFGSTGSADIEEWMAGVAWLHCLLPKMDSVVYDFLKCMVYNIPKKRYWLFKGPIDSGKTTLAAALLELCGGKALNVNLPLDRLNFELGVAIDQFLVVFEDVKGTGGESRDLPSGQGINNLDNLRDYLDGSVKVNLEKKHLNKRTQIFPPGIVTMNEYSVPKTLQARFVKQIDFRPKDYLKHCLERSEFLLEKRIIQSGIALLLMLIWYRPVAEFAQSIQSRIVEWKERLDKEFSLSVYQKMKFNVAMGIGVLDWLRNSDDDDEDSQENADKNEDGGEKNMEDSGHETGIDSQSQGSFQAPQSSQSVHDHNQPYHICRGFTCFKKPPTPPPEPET

[10] = molecular target: T3, Replicative DNA helicase DnaB (Mycobacterium tuberculosis, UniProt P9WMR3); experiment: DnaB intein splicing inhibitors, dose response, biochemical, cell-free fluorescence (AID 449749); assay type: functional
T3 sequence (P9WMR3 whole entry): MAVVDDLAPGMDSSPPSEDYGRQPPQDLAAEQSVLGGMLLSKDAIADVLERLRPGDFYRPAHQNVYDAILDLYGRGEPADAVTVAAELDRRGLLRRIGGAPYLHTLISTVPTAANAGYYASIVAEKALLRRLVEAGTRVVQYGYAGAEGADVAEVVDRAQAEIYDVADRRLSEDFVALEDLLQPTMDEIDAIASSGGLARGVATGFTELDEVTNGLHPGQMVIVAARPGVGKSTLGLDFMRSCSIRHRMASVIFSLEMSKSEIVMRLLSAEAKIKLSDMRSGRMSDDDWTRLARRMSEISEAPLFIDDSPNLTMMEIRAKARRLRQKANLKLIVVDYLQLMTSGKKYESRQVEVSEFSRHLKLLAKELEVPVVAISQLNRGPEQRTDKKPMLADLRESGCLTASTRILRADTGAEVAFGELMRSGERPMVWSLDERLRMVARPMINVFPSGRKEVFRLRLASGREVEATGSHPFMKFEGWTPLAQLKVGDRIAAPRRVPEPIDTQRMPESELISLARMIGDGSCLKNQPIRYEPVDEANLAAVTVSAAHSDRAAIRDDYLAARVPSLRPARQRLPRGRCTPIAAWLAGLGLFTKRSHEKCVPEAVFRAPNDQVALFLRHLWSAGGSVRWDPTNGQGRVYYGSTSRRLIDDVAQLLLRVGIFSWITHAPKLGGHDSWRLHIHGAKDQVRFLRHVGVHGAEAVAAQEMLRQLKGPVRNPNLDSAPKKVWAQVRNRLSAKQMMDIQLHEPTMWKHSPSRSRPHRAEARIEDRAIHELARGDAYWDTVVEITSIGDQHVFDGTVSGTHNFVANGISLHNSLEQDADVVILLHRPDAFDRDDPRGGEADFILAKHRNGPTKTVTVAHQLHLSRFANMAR

[11] = cells; assay type: functional
[12] = Luminescence Cell-Based Dose Confirmation HTS to Identify Inhibitors of Platelet Dense Granule Release. [Related pubchem assays: 1663 (Primary HTS), 1678 (Summary of Project)]; assay type: functional
[13] = molecular target: Luciferin 4-monooxygenase (Photinus pyralis, UniProt P08659); experiment: inhibition of purified Photinus pyralis luciferase – biochemical, luminescence, dose response (AID 1891)
Sequence of Luciferin 4-monooxygenase (P08659 whole entry): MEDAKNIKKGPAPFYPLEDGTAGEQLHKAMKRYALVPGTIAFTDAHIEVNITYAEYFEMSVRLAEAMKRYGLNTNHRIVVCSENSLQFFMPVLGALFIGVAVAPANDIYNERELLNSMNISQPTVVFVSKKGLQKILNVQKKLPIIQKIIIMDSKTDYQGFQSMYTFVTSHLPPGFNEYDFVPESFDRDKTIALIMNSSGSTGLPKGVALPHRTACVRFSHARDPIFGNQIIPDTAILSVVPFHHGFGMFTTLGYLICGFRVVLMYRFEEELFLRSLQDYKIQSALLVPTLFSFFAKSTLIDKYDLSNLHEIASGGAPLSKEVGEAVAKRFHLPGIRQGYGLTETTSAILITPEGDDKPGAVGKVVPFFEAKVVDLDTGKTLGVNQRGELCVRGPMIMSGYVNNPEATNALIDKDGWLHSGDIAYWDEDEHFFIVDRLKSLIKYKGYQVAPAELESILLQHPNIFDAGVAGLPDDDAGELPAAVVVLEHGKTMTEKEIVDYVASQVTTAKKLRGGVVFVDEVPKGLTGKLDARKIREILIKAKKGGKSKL

[14] = non-specific 3'UTR reporter inhibition in Clone20-Shn3RL – cell-based, Renilla luciferase, cherry-picked, counter-screen for Shn3 inhibitor project, dose response (AID 624133); assay type: functional
[15] = reduction of Shn3 3'UTR-driven luciferase in osteoblasts – cell-based, Clone20 osteoblasts, firefly luciferase, cherry-picked, dose response (AID 624132); assay type: functional;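 further: firefly luciferase luminescence from reporter carrying the Shn3 3'UTR in osteoblasts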
[16] = viability of PTEN-deleted HCT116 cells – cell-based, HCT116 PTEN knockout, dose response (AID 1047); assay type: functional;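 further: HCT116 colon tumor cells with PTEN knocked out; cells exposed to compound for 60 hours before readout; potency for loss of cell viability measured by luminescence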
[17] = viability of HCT116 lacking mutant beta-catenin – cell-based, human colon tumor, dose response (AID 1045); assay type: functional;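 further: HCT116 colon tumor cells with beta catenin knocked out; cells exposed to compound for 60 hours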
[18] = molecular target: Genome polyprotein (dengue virus type 2, UniProt P29990); experiment: flavivirus cap methylation enzyme inhibition – biochemical, confirmation dose response, primary screen (AID 588689); assay type: functional
Sequence of Genome polyprotein (P29990 2492-3391 limits assumed): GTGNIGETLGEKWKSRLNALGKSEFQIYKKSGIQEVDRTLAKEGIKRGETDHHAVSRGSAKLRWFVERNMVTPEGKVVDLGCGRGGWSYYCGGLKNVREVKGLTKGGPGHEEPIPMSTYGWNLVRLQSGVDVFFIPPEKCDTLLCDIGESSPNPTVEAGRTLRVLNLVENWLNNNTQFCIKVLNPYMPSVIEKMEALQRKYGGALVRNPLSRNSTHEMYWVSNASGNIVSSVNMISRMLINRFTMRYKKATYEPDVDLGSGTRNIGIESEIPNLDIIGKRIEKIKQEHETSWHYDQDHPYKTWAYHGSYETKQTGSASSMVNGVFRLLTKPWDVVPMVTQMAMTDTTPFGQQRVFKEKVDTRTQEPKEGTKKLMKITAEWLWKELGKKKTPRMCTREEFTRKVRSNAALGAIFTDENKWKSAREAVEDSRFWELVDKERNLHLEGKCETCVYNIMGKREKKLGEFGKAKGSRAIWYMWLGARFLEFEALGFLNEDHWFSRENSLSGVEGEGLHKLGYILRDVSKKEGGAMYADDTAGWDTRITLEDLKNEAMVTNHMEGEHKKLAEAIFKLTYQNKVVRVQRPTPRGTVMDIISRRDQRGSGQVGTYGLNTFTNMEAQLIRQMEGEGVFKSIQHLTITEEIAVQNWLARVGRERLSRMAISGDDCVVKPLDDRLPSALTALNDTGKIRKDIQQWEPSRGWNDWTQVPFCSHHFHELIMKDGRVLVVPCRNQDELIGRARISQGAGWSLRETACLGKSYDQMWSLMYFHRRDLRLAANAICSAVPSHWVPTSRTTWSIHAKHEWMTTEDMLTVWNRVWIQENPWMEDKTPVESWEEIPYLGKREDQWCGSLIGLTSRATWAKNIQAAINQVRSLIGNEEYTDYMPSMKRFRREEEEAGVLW

[19] = molecular target: T4, Streptokinase A (Streptococcus pyogenes serotype M1, UniProt P10520); experiment: viability-normalized secreted streptokinase activity reduction – plasminogen activation absorbance, OD405, dose response (AID 1914); assay type: functional, Streptococcus pyogenes M1 GAS;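 further: secreted streptokinase activity via plasminogen activation per viability signal from cell pellet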
T4 sequence (P10520 whole entry): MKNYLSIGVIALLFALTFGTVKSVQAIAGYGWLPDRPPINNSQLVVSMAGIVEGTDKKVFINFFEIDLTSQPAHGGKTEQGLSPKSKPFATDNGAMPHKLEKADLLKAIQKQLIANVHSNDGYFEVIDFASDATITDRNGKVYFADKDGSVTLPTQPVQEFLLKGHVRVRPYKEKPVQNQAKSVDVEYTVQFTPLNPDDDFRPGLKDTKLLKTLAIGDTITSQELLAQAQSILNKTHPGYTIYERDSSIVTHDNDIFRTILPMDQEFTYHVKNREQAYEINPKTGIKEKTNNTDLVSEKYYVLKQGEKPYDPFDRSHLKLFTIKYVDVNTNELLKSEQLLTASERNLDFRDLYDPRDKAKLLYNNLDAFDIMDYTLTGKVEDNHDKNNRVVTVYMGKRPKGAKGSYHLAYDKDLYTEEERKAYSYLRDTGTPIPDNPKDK

[20] = HepG2 cell cytotoxicity, dose response, cytotoxicity control for non-replicating M. tuberculosis project (AID 489018); assay type: functional; conditions: Mycobacterium tuberculosis
[21] = test system: Streptococcus sp. 'group A'; experiment: Streptococcus pyogenes SK(-)GAS viability under kanamycin – luminescence, BacTiterGlo, confirmation, counter-screen for streptokinase expression inhibitor project, dose response (AID 1900); assay type: functional, organism-based
[22] = THP-1 cell cytotoxicity, dose response, cytotoxicity control for non-replicating M. tuberculosis project (AID 489025); assay type: functional
[23] = test system: Streptococcus; experiment: GAS UMAA2166 growth inhibition – luminescence, BacTiterGlo, counter-screen for streptokinase expression inhibitor project, dose response (AID 1915); assay type: functional, organism-based;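 further: potency for reduction of bacterial viability or growth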
[24] = Vero E6 cell cytotoxicity, dose response, cytotoxicity control for non-replicating M. tuberculosis project, secondary assay (AID 492998); assay type: functional, VeroE6; conditions: Vero C1008

SMILES: CCN1C(NCCc2cccnc2)=N[C@@H](c2ccccc2)C(C(=O)OC)=C1C
- IC50 [1]: > 100 µM (inactive)
- IC50 [2]: 12 µM (active)

SMILES: CC(Oc1ccc(F)cc1)C(=O)Nc1cc(S(=O)(=O)N2CCOCC2)ccc1N1CCN(C)CC1 (stereo not given)
- IC50 [3]: 4.91 µM (active)
- IC50 [4]: 8.29 µM (active)

SMILES: CC(=O)c1c(COC(=O)c2cccnc2)nc2ccccc2[n+]1[O-]
- IC50 [3]: 1.48 µM (active)
- IC50 [4]: 2.09 µM (active)

SMILES: O=c1[nH]c2ccc(Br)cc2c(-c2ccccc2)c1CN1CCOCC1
- IC50 [5]: 54.2 µM (active)

SMILES: N#CCn1c(CCl)nc2ccccc2c1=O
- CC50 [6]: 30.8 µM (active)
- CC50 [7]: 14.9 µM (active)
- EC50 [8]: 7.2 µM (active)
- IC50 [9]: 15.1 µM (active)
- AC50 [10]: 80.6 µM (active)

SMILES: COc1cc(/C=C2/C(=O)NN(c3ccc(Cl)cc3)C2=O)ccc1OC(=O)c1ccco1
- IC50 [11]: 16.6 µM (active)
- EC50 [12]: > 112 µM (not active)
- IC50 [9]: 21.6 µM (active)
- EC50 [13]: > 112 µM (not active)

SMILES: O=c1[nH]c(SCc2ccccc2Cl)nc2n[nH]cc12
- IC50 [5]: 9.3 µM (active)

SMILES: CC(C)C[C@H](NC(=O)C1CC(=O)N(c2ccc3c(c2)OCO3)C1)C(=O)NCc1ccco1 (stereo not given in full)
- IC50 [1]: 20 µM (active)
- IC50 [2]: > 100 µM (inactive)

SMILES: COc1cc(O)ccc1C(=O)CCc1ccc(O)cc1
- IC50 [9]: 13.3 µM (active)

SMILES: O=C1ON=C(c2ccccc2)/C1=C/c1ccc(-c2ccccc2[N+](=O)[O-])o1
- AC50 [14]: 23.2 µM (active)
- AC50 [15]: 7.21 µM (active)
- IC50 [9]: 52.8 µM (active)
- EC50 [16]: 42.5 µM (active)
- EC50 [17]: 21.4 µM (active)
- IC50 [18]: 11.6 µM (active)

SMILES: CCc1cc2c(=O)c(-c3nc4ccccc4n3C)coc2c(CN2CCCCC2C)c1O (stereo not given)
- IC50 [1]: 15.1 µM (active)
- IC50 [2]: 57.8 µM (active)

SMILES: C/C(=N\NC(=O)c1ccccc1O)C1C(=O)c2ccccc2C1=O
- IC50 [5]: 12.8 µM (active)
- EC50 [19]: > 150 µM (not active)
- CC50 [20]: > 20 µM (active)
- EC50 [21]: 3.62 µM (active)
- CC50 [22]: 10.5 µM (active)
- EC50 [23]: 41 µM (active)
- CC50 [24]: 4.99 µM (active)
